Experimental data reported in patent US8742082B2, “Compositions and methods for influencing satiety, lipid metabolism, and fat utilization” (Nestec S.A., priority 2008, dated 2014).

Key:
[1] = test system: Sterol regulatory element binding protein-C 2 (SREBP2 1); assay: Real-time PCR gene expression in peripheral tissues: SREBP2; format: in vivo; conditions: liver; C57bl6j mice, high fat diet, 100 mg/kg/body weight in diet, 5 weeks
Description: (§1) The expression of 45 genes was measured by real-time PCR in peripheral tissues to identify genes that were differentially expressed in response to oral administration of oleoylethanolamide (OEA) or a non-hydrolysable OEA analog (KDS 5104), which affect satiety, lipid metabolism, fat utilization, food intake, and body fat mass.
Animals, diet, and experimental design. Adult male C57bl6j mice purchased at 8 weeks of age were individually housed and maintained ad libitum on high fat diet and water for 2 weeks. Seven mice were randomly allocated in 3 groups and fed with a high fat diet (lipids represented 50% of daily energy) for 2 weeks. […]
RNA extraction and gene expression. […] The RNA concentration was determined on nanodrop from the absorbance at 260 nm. […] Real-time quantitative PCR (RT-qPCR) were performed on cDNA obtained as described above using a high through put system (Biomek 3000, Beckman & Coulter, Fullerton, USA) and a Lightcycler 480 (Roche/Hitachi, Basel, Switzerland) with SYBR Green Master mix+kit (Eurogentec, Philadelphia, USA). […] Values were expressed as ratio of RNA levels relative to control mice (diets with 0 mg of OEA/kg/body weight) using ΔΔ(Ct) (Livak K J & Schmittgen T D, 2001, Methods 25:402-8). Gene expression of the following genes was measured (abbreviation and GenBank Accession shown in parentheses). […]

[2] = Chronic oral OEA in high fat diet: liver, adipose fat pads and body weight; format: in vivo; conditions: C3H mice, 4 weeks
Description: The physiological and biochemical effects of chronic oral OEA administration were investigated. Mice were chronically fed with OEA, provided as a supplement during 4 weeks, to study the effect on body weight gain and cumulative food intake, among other parameters.
Animals, diet and experimental design. Adult male C3H mice purchased at 8 weeks of age were individually housed and maintained ad libitum on different diets and water for 2 weeks. Seven mice were allocated in 3 groups by randomization by weight, and fed with a high fat diet (lipids represented 50% of daily energy) during 2 weeks. The composition of the high fat diet per kg was: 284.5 g of corn starch, 89.5 g of saccharose, 250 g of casein, 50 g of cellulose, 10 g of a mix of vitamins (V1001), 35 g of a mix of minerals (S10026) and 281 g of canola oil (UPAE, Jouy en Josas, France). Then, OEA was added to the diets at different levels to provide 0, 10, or 100 mg OEA/kg body weight. The mice were kept on each respective diet for 4 weeks. During the nutritional intervention, daily food intake was monitored and the mice were weighed 3 times a week.
Sampling. At the end of the experimental period, mice were sacrificed by blood drawing after anesthesia with isoflurane. Plasma was obtained by centrifugation (1,000 g for 10 min at 4° C.). Mesenteric, epididymal, inguinal and peritoneal adipose depots, as well as liver, stomach, small intestine mucosa and gastrocnemian muscle were excised and frozen into liquid nitrogen. Plasma and organ samples were kept at −80° C. until analysis. Triglycerides, glucose, total cholesterol and HDL cholesterol were directly measured on plasma samples collected during the sacrifice by enzymatic procedures, using a Beckman Coulter Systems SYNCHRON LX 20 (Beckman Coulter, Fullerton, USA) (oxidase method, Beckman Coulter for glucose, GPO method, Beckman Coulter for TG, oxidase and esterase method, Beckman Coulter for cholesterol). HDL were isolated by specific solubilization, using a precipitation isolation kit (Beckman Coulter, Fullerton, USA).
Statistical analysis. Results were determined as mean±standard error of the mean (SEM). Statistical analysis of physiological parameters was performed by one-way ANOVA on Statview software (SAS institute, Cary, USA). Statistical significance was set up at the P<0.05 level.

Visfatin = assay: Real-time PCR gene expression in peripheral tissues: visfatin; format: in vivo; conditions: C57bl6j mice, high fat diet, 100 mg/kg/body weight in diet, 5 weeks
Description: as §1
(§2) Animals, diet, and experimental design. Adult male C57bl6j mice purchased at 8 weeks of age were individually housed and maintained ad libitum on high fat diet and water for 2 weeks. Seven mice were randomly allocated in 3 groups and fed with a high fat diet (lipids represented 50% of daily energy) for 2 weeks. For one kilogram, the composition of the high fat diet was: 235 g casein, 201 g saccharose, 3.5 g L-cystine, 85 g starch, 116 g maltodextrin, 60 g cellulose, 12 g vitamins mix (AIN-93M, UPAE, Jouy-en-Josas, France), 51.5 g mineral mix (AIN-93Vx, UPAE, Jouy-en-Josas, France), and 236 g lard. Then, either OEA or KDS 5104 was added to the diet at a concentration of 100 mg/kg/body weight. The mice were kept under treatment for 5 weeks.
(§3) Sampling. At the end of the experimental period, mice were sacrificed by blood drawing (cardiac puncture) after anesthesia with isoflurane. Plasma was obtained by centrifugation (1,000 g for 10 min at 4° C.). Mesenteric, epididymal, inguinal and peritoneal adipose depots, as well as liver, stomach, small intestine mucosa, pancreas, and gastrocnemian muscle were removed and frozen into liquid nitrogen. Plasma, urine, feces, and organ samples were kept at −80° C. until analysis.
RNA extraction and gene expression. Total RNA from liver, intestine mucous membrane, adipose tissues, gastrocnemian muscle, pancreas and stomach were extracted with TRIzol reagent (Invitrogen, Carlsbad, USA) according to the manufacturer's instruction. The RNA concentration was determined on nanodrop from the absorbance at 260 nm. […] Real-time quantitative PCR (RT-qPCR) were performed on cDNA obtained as described above using a high through put system (Biomek 3000, Beckman & Coulter, Fullerton, USA) and a Lightcycler 480 (Roche/Hitachi, Basel, Switzerland) with SYBR Green Master mix+kit (Eurogentec, Philadelphia, USA). […] Values were expressed as ratio of RNA levels relative to control mice (diets with 0 mg of OEA/kg/body weight) using ΔΔ(Ct) (Livak K J & Schmittgen T D, 2001, Methods 25:402-8). Gene expression of the following genes was measured (abbreviation and GenBank Accession shown in parentheses).
Statistical analysis. […] Daily food intake was analyzed using two-way ANOVA on Statview software. […] For statistical analysis of the gene expression data, values were calculated relative to 18S expression for each mouse and gene.

[3] = target: G-protein coupled cannabinoid receptor GPR119 (Homo sapiens, UniProt Q8TDV5); conditions: cited from earlier work
Chain of G-protein coupled cannabinoid receptor GPR119 (Q8TDV5 whole entry): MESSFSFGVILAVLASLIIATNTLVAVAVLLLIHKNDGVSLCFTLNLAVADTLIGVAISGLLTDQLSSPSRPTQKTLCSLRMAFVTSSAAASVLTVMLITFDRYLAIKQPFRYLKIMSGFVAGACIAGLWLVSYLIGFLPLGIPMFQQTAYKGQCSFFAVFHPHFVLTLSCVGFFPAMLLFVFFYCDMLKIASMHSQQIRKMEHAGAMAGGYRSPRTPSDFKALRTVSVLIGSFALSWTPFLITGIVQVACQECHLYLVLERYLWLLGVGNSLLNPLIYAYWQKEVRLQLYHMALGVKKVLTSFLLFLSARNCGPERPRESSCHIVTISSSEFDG

[4] = test system: Sterol regulatory element binding protein-c 1 (SREBP 1c); assay: Real-time PCR gene expression in peripheral tissues: SREBP1c; format: in vivo; conditions: C57bl6j mice, high fat diet, 100 mg/kg/body weight in diet, 5 weeks
Description: as §1, §2, §3
(§4) RNA extraction and gene expression. Total RNA from liver, intestine mucous membrane, adipose tissues, gastrocnemian muscle, pancreas and stomach were extracted with TRIzol reagent (Invitrogen, Carlsbad, USA) according to the manufacturer's instruction. The RNA concentration was determined on nanodrop from the absorbance at 260 nm. Retro-transcription PCRs to synthesize cDNA were performed using an Applied Biosystem Thermal Cycler 2720 and Superscript II (Invitrogen, Carlsbad, USA) according to manufacturer's protocol. Real-time quantitative PCR (RT-qPCR) were performed on cDNA obtained as described above using a high through put system (Biomek 3000, Beckman & Coulter, Fullerton, USA) and a Lightcycler 480 (Roche/Hitachi, Basel, Switzerland) with SYBR Green Master mix+kit (Eurogentec, Philadelphia, USA). Primers for the selected genes were generated using online informatics assistance from the Lightcycler manufacturer (Roche). Databases used to identify the genes were (1) the NCBI database (GenBank) and (2) the IHOP (Information Hyperlinked over Protein) database (www.ihop-net.org/UniPub/iHOP/bng/). Values were expressed as ratio of RNA levels relative to control mice (diets with 0 mg of OEA/kg/body weight) using ΔΔ(Ct) (Livak K J & Schmittgen T D, 2001, Methods 25:402-8). Gene expression of the following genes was measured (abbreviation and GenBank Accession shown in parentheses).
(§5) Statistical analysis. […] Statistical analysis of physiological parameters and gene expression data was performed by one-way ANOVA on Statview software (SAS Institute, Cary, USA). Daily food intake was analyzed using two-way ANOVA on Statview software. Statistical significance was set up at the P<0.05 level, the P<0.01 level and the P<0.001 level. For statistical analysis of the gene expression data, values were calculated relative to 18S expression for each mouse and gene.

[5] = oral, over the 12 first hours; cited from earlier work
[6] = test system: Stearoyl-Coenzyme A desaturase 1 (SCD 1); assay: Real-time PCR gene expression in peripheral tissues: SCD1; format: in vivo; conditions: C57bl6j mice, high fat diet, 100 mg/kg/body weight in diet, 5 weeks
Description: as §1, §2, §3, §4, §5

[7] = test system: N-acylsphingosine amidohydrolase-like (NAAA); assay: Real-time PCR gene expression in peripheral tissues: NAAA; format: in vivo; conditions: C57bl6j mice, high fat diet, 100 mg/kg/body weight in diet, 5 weeks
Description: as §1, §2, §3, §4, §5

CCCCCCCC/C=C\CCCCCCCC(=O)NCCO [OEA, N-oleoyl-ethanolamide]
SREBP2 l, ratio of RNA levels relative to control mice [1]: 1.22 | mesenteric fat pads ([2]; independently of the dose): remained unaffected | Peritoneal adipose tissue ([2]; OEA 10 or 100 mg/kg body weight): mainly decreased | Hepatomegaly ([2]; OEA in diet): did not induce hepatomegaly | final body weight ([2]; OEA in diet): not affected | inguinal fat pads (indicator of subcutaneous fat depot) ([2]; OEA in diet, P<0.05): decreased | visfatin at ep, ratio of RNA levels relative to control mice (Visfatin; epidydimal adipose tissue): −1.55 | visfatin at per, ratio of RNA levels relative to control mice (Visfatin; peritoneal adipose tissue): −1.80 | binding to GPR119 [3]: can also bind | SREBP1c at ep, ratio of RNA levels relative to control mice ([4]; epidydimal adipose tissue): 1.08 | SREBP1c l, ratio of RNA levels relative to control mice ([4]; liver): 1.24 | SREBP1c at per, ratio of RNA levels relative to control mice ([4]; peritoneal adipose tissue): −1.39 | food intake after acute gavage [5]: decrease significantly | SCD 1 at ep, ratio of RNA levels relative to control mice ([6]; epidydimal adipose tissue): 1.00 | SCD1 l, ratio of RNA levels relative to control mice ([6]; liver): −2.13 | SCD 1 at per, ratio of RNA levels relative to control mice ([6]; peritoneal adipose tissue): −1.30 | NAAA at ep, ratio of RNA levels relative to control mice ([7]; epidydimal adipose tissue): 1.36 | NAAA at per, ratio of RNA levels relative to control mice ([7]; peritoneal adipose tissue): 1.03 | NAAA i, ratio of RNA levels relative to control mice ([7]; proximal intestine): 1.85
